Measured values reported in patent US20260191858A1, “COMBINATION THERAPIES” (Kallyope, Inc., priority 2022, published 2026).

Columns and labels:
human GPR40 = target: T1, human GPR40 (Homo sapiens, UniProt O14842); assay: Inositol phosphate accumulation assay in CHO-K1 cells expressing human GPR40; format: cell-based; settings: CHO-K1 human GPR40, IP1 HTRF, 90 min
T1 construct: host or cells: CHO-K1
Method: CHO-K1 cells expressing human GPR40 were purchased from DiscoverX (95-1005C2). HEK293 cells expressing mouse FFAR1 were prepared using a mouse FFAR1 carrying plasmid purchased from OriGene Technologies (MR222997). The cells were transfected using Lipofectamine 2000 using manufacturer instructions and stable cell line was established from a single cell using geneticine selection. Assay ready frozen (ARF) cells were prepared and used throughout the study.
The assay was performed in a 384-well plate format using IP1 assay kit from Cis-Bio. ARF cells expressing FFAR1 (mouse and human) were thawed, washed and then plated in the appropriate medium (F12 based medium for CHO hFFAR1 and DMEM based medium for HEK293 mFFAR1—both were supplemented with 10% FBS and penicillin/streptomycin). 20 μL of 3.5×10^5 cells/mL were plated on a Poly D-Lysine coated 384-well white plate. The cells were then incubated for 16 hr at 37° C./5% CO2. After 16 hr the medium was removed and 15 μL of stimulation buffer containing the test compounds was added to the cells. The plates were then incubated for 90 min at 37° C./5% CO2. 5 μL of detection buffer (prepared as described in the IP-one kit) was added to each well and the plates were incubated at RT for 1 hr.
[…] was measured using ClarioSTAR plate reader, calculating the ratio between emissions at 665 nm and 620 nm (HTRF ratio). HTRF ratio for positive (Max) and negative (Min) controls were used to normalize HTRF data and generate values for % activity. EC50 and Max activity values were determined using a standard 4-parameter fit.

human GPR119 (hGPR119) = target: T2, human GPR119 (hGPR119) (Homo sapiens, UniProt Q8TDV5); assay: cAMP accumulation assay in CHO-K1 cells stably expressing hGPR119; format: cell-based; settings: cAMP HTRF, 60 minutes
T2 construct: expressed in transfected cells; host or cells: CHO-K1
T2 sequence (Q8TDV5 1-335): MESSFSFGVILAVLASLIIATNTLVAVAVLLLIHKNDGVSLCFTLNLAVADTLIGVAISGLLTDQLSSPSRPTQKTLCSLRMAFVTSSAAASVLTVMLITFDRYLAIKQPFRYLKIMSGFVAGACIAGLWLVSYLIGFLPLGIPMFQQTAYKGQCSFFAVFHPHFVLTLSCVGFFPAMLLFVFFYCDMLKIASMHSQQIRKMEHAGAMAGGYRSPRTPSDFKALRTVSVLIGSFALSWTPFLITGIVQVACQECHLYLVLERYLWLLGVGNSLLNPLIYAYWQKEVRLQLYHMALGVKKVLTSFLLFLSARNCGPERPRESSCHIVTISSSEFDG
How it was run: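 Assay-ready frozen CHO-K1 cells stably expressing hGPR119, ~10,000 cells/well, were exposed to compounds for 60 min at 37 °C in stimulation buffer with Tween 80. cAMP was measured by HTRF (665/620 nm ratio) and normalized to Max/Min controls as % activity. EC50 and Max activity came from a 4-parameter fit.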

T1 sequence (O14842 whole entry): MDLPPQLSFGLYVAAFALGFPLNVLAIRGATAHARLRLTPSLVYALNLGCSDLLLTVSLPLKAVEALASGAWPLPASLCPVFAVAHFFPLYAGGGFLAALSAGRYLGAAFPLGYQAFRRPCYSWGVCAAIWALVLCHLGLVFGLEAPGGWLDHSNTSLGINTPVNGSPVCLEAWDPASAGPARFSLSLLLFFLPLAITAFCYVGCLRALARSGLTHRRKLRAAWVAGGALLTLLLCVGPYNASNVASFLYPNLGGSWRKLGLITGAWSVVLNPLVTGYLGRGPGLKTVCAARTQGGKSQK

EC50 (human GPR40) [nM] | EC50 (human GPR119 (hGPR119)) [nM] | Compound
≤ 50 | – | COc1ccc(F)c([C@H]2CC[C@H](COc3cccc([C@H](C[P@@](C)(=O)O)C4CC4)c3)CC2)c1 (single isomer, unassigned) [Compound B3]
≤ 50 | – | COc1ccc(F)c([C@H]2CC[C@H](COc3cc([C@@H](CP(C)(=O)O)C4CC4)ccn3)CC2)c1 [Compound B5, ((S)-2-cyclopropyl-2-(2-(((trans)-4-(2-fluoro-5-methoxyphenyl)cyclohexyl)methoxy)pyridin-4-yl)ethyl)(methyl)phosphinic acid]
≤ 50 | – | COc1ccc(CCCC(C)(C)C)c(N2CCC(COc3cc([C@@H](CP(C)(=O)O)C4CC4)ccn3)CC2)c1 [Compound B7, ((S)-2-cyclopropyl-2-(2-((1-(2-(4,4-dimethylpentyl)-5-methoxyphenyl)piperidin-4-yl)methoxy)pyridin-4-yl)ethyl)(methyl)phosphinic acid]
50 to 250 | – | COc1ccc(F)c([C@H]2CC[C@H](COc3cccc([C@@H](C[P@@](C)(=O)O)C4CC4)c3)CC2)c1 (single isomer, unassigned) [Compound B4]
≤ 50 | – | COc1ccc(CCCC(C)(C)C)c(N2CCC(COc3cccc([C@@H](CP(C)(=O)O)C4CC4)c3)CC2)c1 [Compound B6, ((S)-2-cyclopropyl-2-(3-((1-(2-(4,4-dimethylpentyl)-5-methoxyphenyl)piperidin-4-yl)methoxy)phenyl)ethyl)(methyl)phosphinic acid]
≤ 50 | – | COc1ccc(CCCC(C)(C)C)c(N2CCC(COc3cccc([C@H](C)CP(C)(=O)O)c3)CC2)c1 [Compound B10, ((S)-2-(3-((1-(2-(4,4-dimethylpentyl)-5-methoxyphenyl)piperidin-4-yl)methoxy)phenyl)propyl)(methyl) phosphinic acid]
250 to 1000 | – | COc1ccc(CCCC(C)(C)C)c(N2CCC(COc3cc([C@H](C)CP(C)(=O)O)ccn3)CC2)c1 [Compound B9, ((S)-2-(2-((1-(2-(4,4-dimethylpentyl)-5-methoxyphenyl)piperidin-4-yl)methoxy)pyridin-4-yl)propyl)(methyl)phosphinic acid]
50 to 250 | – | COc1ccc(CCCC(C)(C)C)c(N2CCC(COc3cccc([C@@H](C)CP(C)(=O)O)c3)CC2)c1 [Compound B11, ((R)-2-(3-((1-(2-(4,4-dimethylpentyl)-5-methoxyphenyl)piperidin-4-yl)methoxy)phenyl)propyl)(methyl) phosphinic acid]
250 to 1000 | – | CC[C@@H](Cc1cccc(OCC2CCN(c3cc(OC)ccc3CCCC(C)(C)C)CC2)c1)P(C)(=O)O [Compound B12, ((S)-1-(3-((1-(2-(4,4-dimethylpentyl)-5-methoxyphenyl)piperidin-4-yl)methoxy)phenyl)butan-2-yl)(methyl)phosphinic acid]
250 to 1000 | – | CC[C@H](Cc1cccc(OCC2CCN(c3cc(OC)ccc3CCCC(C)(C)C)CC2)c1)P(C)(=O)O [Compound B13, ((R)-1-(3-((1-(2-(4,4-dimethylpentyl)-5-methoxyphenyl)piperidin-4-yl)methoxy)phenyl)butan-2-yl)(methyl)phosphinic acid]
≤ 50 | – | COc1ccc(CCCC(C)(C)C)c(N2CCC(COc3cc([C@@H](C)CP(C)(=O)O)ccn3)CC2)c1 [Compound B8, ((R)-2-(2-((1-(2-(4,4-dimethylpentyl)-5-methoxyphenyl)piperidin-4-yl)methoxy)pyridin-4-yl)propyl)(methyl)phosphinic acid]
– | ≤ 100 | O=C(Cc1ccc(OCCCC2CCN(c3ncc(Cl)cn3)CC2)cc1F)N1CC(O)(CNC[C@H](O)[C@H](O)[C@H](O)CO)C1 [Compound A72, 2-[4-[3-[1-(5-chloropyrimidin-2-yl)-4-piperidyl]propoxy]-2-fluoro-phenyl]-1-[3-hydroxy-3-[[[(2S,3S,4R)-2,3,4,5-tetrahydroxypentyl]amino]methyl]azetidin-1-yl]ethanone]
– | 100 to 1000 | O=C(Cc1ccc(OCCCC2CCN(c3ncc(Cl)cn3)CC2)cc1F)N1CC(CCNC(CO)(CO)CO)C1 [Compound A29, 2-(4-(3-(1-(5-chloropyrimidin-2-yl)piperidin-4-yl)propoxy)-2-fluorophenyl)-1-(3-(2-((1,3-dihydroxy-2-(hydroxymethyl)propan-2-yl)amino)ethyl)azetidin-1-yl)ethan-1-one]
– | 100 to 1000 | O=C(NCCO[C@H]1O[C@H](CO)[C@@H](O)[C@H](O)[C@@H]1O)C1CN(C(=O)Cc2ccc(OCCCC3CCN(c4ncc(Cl)cn4)CC3)cc2F)C1 (racemic) [Compound A6, 1-[2-[4-[3-[1-(5-chloropyrimidin-2-yl)-4-piperidyl]propoxy]-2-fluoro-phenyl]acetyl]-N-[2-[rac-(2S,3S,4S,5S,6R)-3,4,5-trihydroxy-6-(hydroxymethyl)tetrahydropyran-2-yl]oxyethyl]azetidine-3-carboxamide]
– | 1000 to 10000 | O=C(Cc1ccc(OCCCC2CCN(c3ncc(CO)cn3)CC2)cc1F)N1CC(CNC[C@H](O)[C@@H](O)[C@H](O)[C@H](O)CO)C1 [Compound A55, 2-[2-fluoro-4-[3-[1-[5-(hydroxymethyl)pyrimidin-2-yl]-4-piperidyl]propoxy]phenyl]-1-[3-[[[(2S,3R,4R,5R)-2,3,4,5,6-pentahydroxyhexyl]amino]methyl]azetidin-1-yl]ethanone]
– | 100 to 1000 | O=C(CC1CN(C(=O)Cc2ccc(OCCCC3CCN(c4ncc(Cl)cn4)CC3)cc2F)C1)NCCCCS(=O)(=O)O [Compound A70, 4-[[2-[1-[2-[4-[3-[1-(5-chloropyrimidin-2-yl)-4-piperidyl]propoxy]-2-fluoro-phenyl]acetyl]azetidin-3-yl]acetyl]amino]butane-1-sulfonic acid]
– | ≤ 100 | O=C(Cc1ccc(OCCCC2CCN(c3ncc(Cl)cn3)CC2)cc1F)N1CC(CN2C[C@@H](O)[C@@H](O)C2)C1 [Compound A20, 2-[4-[3-[1-(5-chloropyrimidin-2-yl)-4-piperidyl]propoxy]-2-fluoro-phenyl]-1-[3-[rac-(3S,4R)-3,4-dihydroxypyrrolidin-1-yl]methyl]azetidin-1-yl]ethanone]
– | 100 to 1000 | O=C(NCCCCCS(=O)(=O)O)C1CN(C(=O)Cc2ccc(OCCCC3CCN(c4ncc(Cl)cn4)CC3)cc2F)C1 [Compound A66, 5-[[1-[2-[4-[3-[1-(5-chloropyrimidin-2-yl)-4-piperidyl]propoxy]-2-fluoro-phenyl]acetyl]azetidine-3-carbonyl]amino]pentane-1-sulfonic acid]
– | 100 to 1000 | COCc1cnc(N2CCC(CCCOc3ccc(CC(=O)N4CC(CNC[C@H](O)[C@@H](O)[C@H](O)[C@H](O)CO)C4)c(F)c3)CC2)nc1 [Compound A53, 2-[2-fluoro-4-[3-[1-[5-(methoxymethyl)pyrimidin-2-yl]-4-piperidyl]propoxy]phenyl]-1-[3-[[[(2S,3R,4R,5R)-2,3,4,5,6-pentahydroxyhexyl]amino]methyl]azetidin-1-yl]ethanone]
– | ≤ 100 | CCc1cnc(N2CCC(CCCOc3ccc(CC(=O)N4CC(CNC(CO)(CO)CO)C4)c(F)c3)CC2)nc1 [Compound A34, 1-(3-(((1,3-dihydroxy-2-(hydroxymethyl)propan-2-yl)amino)methyl)azetidin-1-yl)-2-(4-(3-(1-(5-ethylpyrimidin-2-yl)piperidin-4-yl)propoxy)-2-fluorophenyl)ethan-1-one]
– | 100 to 1000 | O=C(NC(CO)CO)C1CN(C(=O)Cc2ccc(OCCCC3CCN(c4ncc(Cl)cn4)CC3)cc2F)C1 [Compound A3, 1-[2-[4-[3-[1-(5-chloropyrimidin-2-yl)-4-piperidyl]propoxy]-2-fluoro-phenyl]acetyl]-N-[2-hydroxy-1-(hydroxymethyl)ethyl]azetidine-3-carboxamide]
– | 100 to 1000 | CCc1cnc(N2CCC(CCCOc3ccc(CC(=O)N4CC(CNCC(CO)CO)C4)c(F)c3)CC2)nc1 [Compound A32, 2-(4-(3-(1-(5-ethylpyrimidin-2-yl)piperidin-4-yl)propoxy)-2-fluorophenyl)-1-(3-(((3-hydroxy-2-(hydroxymethyl)propyl)amino)methyl)azetidin-1-yl)ethan-1-one]

Compound | EC50 (human GPR40) [nM] | EC50 (human GPR119 (hGPR119)) [nM]
1-[2-[2-fluoro-4-[3-[1-[5- (methoxymethyl)pyrimidin-2-yl]-4- piperidyl]propoxy]phenyl]acetyl]-N-[2-[2- hydroxy-1,1- bis(hydroxymethyl)ethyl]carbamoylamino] ethyl]azetidine-3-carboxamide [Compound A2] | – | 100 to 1000
